The values that follow come from patent publication US9395375B2, “Method of treating sigma 1 receptor-expressing tumors with interleukin 24” (Research Foundation of the City University of New York, priority 2013, dated 2016).

The subject of data set [1] is metastatic prostate cancer cell lines (LNCaP, DU145 and PC-3). The experiment in a line: Clonogenic (colony formation) assay after Ad.IL-24 infection with or without S1R agonist. Type of data set: cell-based, human. The following applies: Ad.IL-24 plus 10 μM (+)-SKF10047; 2 weeks. The text has this: (§1) Referring to FIG. 1A, FIG. 1B and FIG. 1C, to test this hypothesis Ad.IL-24 was used to treat normal human immortalized epithelial cells (RWPE1), and three metastatic prostate cancer cell lines (LNCaP, DU145 and PC-3) in the presence or absence of the specific S1R agonist, (+)SKF-10047, and measured cell viability and induction of apoptosis by MTT, clonogenic, and AnnexinV-FITC/PI assays. (+)SKF-10047 inhibited Ad.IL-24-mediated killing in PC-3, LNCaP and DU145 cells.
(§2) In FIG. 1A, cells were infected with 100 pfu/cell of Ad.vector or Ad.IL-24, and treated with or without 10 μM (+)-SKF10047—a S1R agonist. Cell viability was determined by MTT assay 4 days post-infection. MTT absorbance of untreated control cells was set at 1 to determine relative number of viable cells. […] In FIG. 1B, cells were incubated in the absence or presence of 10 μM (+)-SKF10047 after infection with Ad.IL-24. Forty-eight hours post-infection, percentage of apoptosis was determined by staining with AnnexinV-FITC/PI. […] In FIG. 1C, cells were incubated in the absence or presence of 10 μM (+)-SKF10047 after infection with Ad.IL-24. Cells were subjected to clonogenic assay for 2 weeks. Results shown are an average of three independent experiments ±SD.
Colony formation assays. Cells were infected with 100 pfu/cell with Ad.vector or Ad.IL-24. The next day, 200 to 500 cells were seeded to determine colony-forming ability. […]

Data set [2] concerns prostate DU145. The experiment in a line: Calcium imaging (Fura-2), cytosolic calcium. The note with it: Ad.IL-24 plus 10 μM (+)-SKF10047, 12 hours. Type of data set: cell-based, human. Here is the method:
FIG. 2B depicts a ratio of calcium ratios for cells infected with 100 pfu/cell of Ad.vector or Ad.IL-24, and treated with or without 10 μM (+)-SKF10047. The ratios are the levels cytosolic calcium at T=0 and T=12 hours. A determination was made concerning whether Ad.IL-24 caused any changes in the cytosolic levels of Ca^++ in prostate cancer cells and if Ca^++ mobilization is S1R-dependent after Ad.IL-24 infection. Ad.IL-24 infection increased cytosolic Ca^++ levels in prostate DU145 within 12 hours. The increase in Ca^++ was blocked by S1R agonist (+)-SKF10047.
Calcium imaging. For Calcium (Ca^++) imaging, cells were plated in 35 mm glass bottom petri dishes (MatTek) and allowed to attach for 12 h prior to treatment(s). Inhibitors were added 4 h after infection with adenovirus. After 12 h, cells were then rinsed with a Ringer's solution maintained at 37° C. Cells were then incubated in Ringer's solution containing 0.5 μM Fura-2 tetra-acetoxymethyl ester (Fura-2) (Molecular Probes), 10% Pluronic F127 and 250 μm sulfinpyrazone (Sigma-Aldrich, Inc) for 40 min at 22° C. Fura-2 was excited by alternating 340 and 380 nm light and images were obtained every 50 ms as a measure of Ca^++ concentration. Background intensity was zero. […]

Data set [3] deals with metastatic prostate cancer cell lines (LNCaP, DU145 and PC-3). The experiment in a line: AnnexinV-FITC/PI apoptosis assay after Ad.IL-24 infection with or without S1R agonist. It counts as cell-based, human. The note with it: for apoptosis by Ad.IL-24 (summary statements): prostate cancer cells, effect of S1R agonist.
Excerpt: as §1, §2
Annexin V binding assays. Cells were trypsinized, washed once with complete medium and PBS, resuspended in 0.5 ml of binding buffer containing 2.5 mmol/L CaCl2, and stained with allophycocyanin-labeled Annexin V (Becton Dickinson Biosciences, Palo Alto, Calif.) and propidium iodide (PI) for 15 min at room temperature. Flow cytometry assays were performed as described in Sauane M, Su Z Z, Dash R, et al. “Ceramide plays a prominent role in MDA-7/IL-24-induced cancer-specific apoptosis” J Cell Physiol. 2010 March; 222(3):546-55.

Data set [4] concerns DU-145 cells. The experiment in a line: Reactive oxygen species (ROS) generation, DCFH-DA fluorescence. It counts as cell-based, human. The following applies: Ad.IL-24 plus 10 μM (+)SKF-10047 for 24 h. Here is the method: Intracellular ROS levels were measured with 10 μM DCF-DA 30 min after treatments. The results are expressed as the mean±S.D. of three independent experiments. The time course of mitochondrial changes (ROS generation) were determined after treatment of DU145 cells with Ad.IL-24. Cells were infected with Ad.IL-24, collected at 24 h, and stained for ROS production with dichlorofluorescin diacetate (DCFH-DA). […] Taken together, the inhibition by an S1R agonist of IL-24-mediated ER stress, Ca^++ mobilization and ROS production, further strengthen the hypothesis that IL-24 action in cancer cells is mediated by an antagonistic effect of IL-24 on S1R.
Assessment of reactive oxygen species (ROS) generation. DU-145 cells were seeded in 96-well plates at a concentration of 1×10^4 cells/well and were infected with Ad.IL-24 for 12 h. The cell cultures were treated with 10 μM 2,7-dichloro-fluorescein diacetate (DCFH-DA; Sigma-Aldrich, St. Louis, Mo.) in PBS for 30 min After incubation, the media was discarded, and the cells were washed with PBS. The fluorescence intensity was determined using a fluorescence plate reader at 485 nm for excitation and 530 nm for emission.

Data set [5] has as its system metastatic prostate cancer cell lines (LNCaP, DU145 and PC-3). The experiment in a line: MTT cell viability assay after Ad.IL-24 infection with or without S1R agonist. It counts as cell-based, human.
Excerpt: as §1
as §2, with “Cells were subjected to clonogenic assay for 2 weeks. Results shown are an average of three independent experiments ±SD.” left out
MTT Assays. […] Cell growth and viable cell numbers were monitored by 3-(4,5 dimethylthiazol-2-yl)-2,5-diphenyltetrazolium bromide (MTT) staining as described in Sauane M, Su Z Z, Dash R, et al. “Ceramide plays a prominent role in MDA-7/IL-24-induced cancer-specific apoptosis” J Cell Physiol. […]
In general terms: Tetrazolium dyes change colour on reduction, which living cells bring about.

The subject of data set [6] is BiP, CHOP, and p-eIF2a proteins. The experiment in a line: Western blot analysis of ER stress markers. The following applies: 100 pfu/cell Ad.IL-24 plus 10 μM (+)-SKF10047; 48 h. It counts as cell-based. How it is done:
Cells were infected with 100 pfu/cell of Ad.vector or Ad.IL-24, and treated with or without 10 μM (+)-SKF10047 (SKF) for indicated times. In FIG. 2A, changes in BiP, CHOP, and p-eIF2a proteins were evaluated by Western blot analysis 48 h after indicated treatments. […] Up-regulation by IL-24 of several ER stress markers is shown, including p-eIF2a, CHOP, and BiP, were inhibited by treatment with (+)SKF-10047.
Western Blot Analysis. Protein extracts were prepared with RIPA buffer containing a mixture of protease inhibitors as described in Sauane M, Su Z Z, Dash R, et al. “Ceramide plays a prominent role in MDA-7/IL-24-induced cancer-specific apoptosis” J Cell Physiol. 2010 March; 222(3):546-55. Fifty micrograms of protein was applied to a 12% SDS/PAGE and transferred to nitrocellulose membranes. The membranes were probed with polyclonal or monoclonal antibodies to IL-24, p-eIF2a, BiP, CHOP, Sigma 1 Receptor, and beta-actin.
(In general: A western blot detects proteins with antibodies after separation by electrophoresis.)

Data set [7] deals with T1, S1R (Homo sapiens, UniProt Q99720).
T1 construct: DU-145 cells were infected with Ad.IL-24; endogenous in cells; host or cells: DU145 cells (ATCC), infected with Ad.IL-24 or Ad.vector
T1 sequence (Q99720 whole entry): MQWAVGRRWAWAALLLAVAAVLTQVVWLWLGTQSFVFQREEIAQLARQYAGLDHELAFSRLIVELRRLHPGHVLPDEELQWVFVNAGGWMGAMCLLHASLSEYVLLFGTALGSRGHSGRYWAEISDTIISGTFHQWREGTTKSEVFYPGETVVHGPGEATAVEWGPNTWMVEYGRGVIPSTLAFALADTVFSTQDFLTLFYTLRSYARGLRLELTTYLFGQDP
The experiment in a line: Immunofluorescence co-localization of IL-24 and S1R. Type of data set: cell-based. The following applies: DU145 cells infected with Ad.IL-24; 24 h; confocal immunofluorescence. How it is done: In FIG. 3A and FIG. 3B, comparative co-localization of IL-24 and S1R proteins was analyzed in DU145 cells after infection with the Ad.IL-24 virus. […] DU-145 cells were infected with Ad.IL-24. After 24 h, cells were fixed and IL-24 and S1R proteins were detected by immunofluorescence using anti-IL-24 and anti-S1R antibodies. The analysis of co-localization of IL-24 and S1R was performed using a DMI6000B inverted confocal microscope with TCS SP5 system (Leica Microsystems CMS). Without wishing to be bound to any particular theory, S1R is believed to interact with IL-24.
Immunofluorescence. Cells were seeded onto chamber slides (Falcon; BD Biosciences, San Jose, Calif.) and maintained in DMEM with 10% fetal bovine calf serum, 24 hours postinfection, cells were fixed with 2% paraformaldehyde, permeabilized by 0.1% Triton X-100, and then incubated with primary antibodies: IL-24, and S1R. Controls were incubated with only the secondary antibodies under the same experimental conditions.

For data set [8], the target named is T1, S1R. The experiment in a line: Co-immunoprecipitation of S1R with IL-24. Type of data set: binding. The note with it: 100 pfu/cell Ad.IL-24, 48 hours. Here is the method:
In FIG. 3A, DU145 cells were infected with 100 pfu/cell of Ad.vector or Ad.IL-24 and immunoprecipitation analysis was done 48 hours later using S1R antibody.
In FIG. 3B, DU-145 cells were infected with 100 pfu/cell of Ad.vector or Ad.IL-24 and immunoprecipitation analysis was done 48 hours later using IL-24 antibody.
Co-immunoprecipitation of S1R with IL-24. Cells were infected with Ad.vector or Ad.IL-24. After 48 hours, protein was extracted from subconfluent cultures using lysis buffer (Pierce, Rockford, Ill.) containing 1 mM phenylmethlsulfonylfluoride (Sigma-Aldrich, Inc) and quantified using the BCA protein assay kit (Pierce, Rockford, Ill.). Antibodies were conjugated to Protein-G beads according, the Sigma Protein-G Immunoprecipitation Kit manufacturer's instructions (Sigma-Aldrich, Inc). Western blot analysis was done as described before using the following primary antibodies at 1:1,000 dilutions: anti-IL-24, and anti-S1R. Secondary antibodies specific for heavy chain of immunoglobulin G (IgG) were used as the light chain of IgG interfered with detection of IL-24 because of similar size.

For (+)-SKF10047, the “cytotoxic effect of Ad.IL-24, clonogenic assay (FIG. 1C)” value in data set [1] is recorded as “substantially negated”. The “increase in Ca++ after Ad.IL-24 infection (FIG. 2B)” value in data set [2] was “blocked”. Besides, the “cytotoxic effect of Ad.IL-24, percentage of apoptosis by AnnexinV-FITC/PI (FIG. 1B)” value in data set [3] (Ad.IL-24 plus 10 μM (+)-SKF10047, 48 hours post-infection) is listed as “substantially negated”. The “apoptosis by Ad.IL-24 (summary statements)” value is “inhibits” in data set [3] and “blocks” in data set [3] (listed as (+) SK-10047). Further, in data set [4], the “Ad.IL-24 increased ROS (FIG. 2C)” value is recorded as “inhibited”. Besides, the “cytotoxic effect of Ad.IL-24, cell viability by MTT (FIG. 1A)” value in data set [5] (100 pfu/cell Ad.IL-24 plus 10 μM (+)-SKF10047, 4 days post-infection) is on record as “substantially negated”. The Ad.IL-24-mediated killing entry in data set [5] (PC-3, LNCaP and DU145 cells, viability and apoptosis by MTT, clonogenic and AnnexinV-FITC/PI assays, effect of S1R agonist) was “inhibited”. For the same molecule, the “Up-regulation by IL-24 of ER stress markers p-eIF2a, CHOP, and BiP (FIG. 2A)” value in data set [6] is on record as “inhibited”.

B1: IL-24: member of the IL-10 cytokine family, immunomodulatory cytokine generated from Ad.IL-24 infection (protein, UniProt Q13007 52-206, looked up)
Interleukin-24: QEFHFGPCQVKGVVPQKLWEAFWAVKDTMQAQDNITSARLLQQEVLQNVSDAESCYLVHTLLEFYLKTVFKNYHNRTVEVRTLKSFSTLANNFVLIVSQLQPSQENEMFSIRDSAHRRFLLFRRAFKQLDVEAALTKALGEVDILLTWMQKFYKL
For B1, the “co-localization with S1R” value in data set [7] was “co-localized”. Also, in data set [8] (DU145 cells), the “interaction with S1R: immunoprecipitation using anti-S1R antibody, immunoblotting with anti-IL-24 antibody (FIG. 3A)” value was “physical interaction”. Further, the “interaction with S1R: immunoprecipitation using anti-IL-24 antibody, probed with anti-S1R antibody (FIG. 3B)” value in data set [8] (DU-145 cells) is “coimmunoprecipitated”.
